In PMC5037758, “Affinity of ^nat/68Ga-Labelled Curcumin and Curcuminoid Complexes for β-Amyloid Plaques: Towards the Development of New Metal-Curcumin Based Radiotracers” (International Journal of Molecular Sciences, 2016):

Experiments:
amyloid β-protein (1–40) [1] = target: T1, amyloid β-protein (1–40) (Homo sapiens, UniProt P05067); assay: direct radioligand binding to fibrils (not displaced by curcumin, lower specificity); fluorescence microscopy
T1 construct: gene APP; Aβ(1–40) synthetic amyloid fibrils
T1 sequence (P05067 672-711): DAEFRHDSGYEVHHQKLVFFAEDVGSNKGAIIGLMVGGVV

amyloid β-protein (1–40) [2] = target: T1, amyloid β-protein (1–40); assay: direct radioligand binding to fibrils with displacement by curcumin; fluorescence microscopy

Substance | % bound (amyloid β-protein (1–40) [1]) | % bound (amyloid β-protein (1–40) [2]) [% bound]
^68Ga(bDHC)2^+ | ~ 50 % bound | 
^68Ga(DAC)2^+ |  | > 90
^68Ga(CUR)2^+ |  | > 90
